{"source": "patent US6416964B2", "about": "“Methods of identifying modulators of kinases responsive to stress” (Merck & Co., Inc., priority 1998, dated 2002)", "key": {"[1]": {"test_system": "34 kDa Mst kinase (Mst 1 cleavage)", "assay": "34 kDa Mst kinase activation / Mst 1 cleavage in purified osteoclasts", "format": "cell-based", "settings": "for activation of the 34 kDa Mst kinase: purified osteoclasts"}, "Mst 1, Mst 2 [2]": {"test_system": "Mst 1, Mst 2", "assay": "in-gel kinase assay in HEK 293 transfectants expressing human αvβ3 integrin", "format": "cell-based", "settings": "αvβ3 integrin transfected HEK 293 cells"}, "[3]": {"test_system": "approximately 60 kDa kinase doublet (Mst 1, Mst 2)", "assay": "in-gel kinase assay (myelin basic protein substrate) in purified preosteoclasts", "format": "cell-based, mouse", "method": "(§1) The following procedure is a modification of Wesolowski et al. (1995, Exp. Cell Res. 219: 679-686), which is incorporated by reference herein in its entirety. Cocultures are made by adding marrow cells from 6-week old mouse tibia and femur onto a monolayer of MB 1.8 mouse calvaria osteoblasts that are preseeded into culture dishes in α-MEM (minimal essential medium) containing fetal calf serum (10%) and 1,25 Dihydroxy Vitamin D3 (10 nM). Cocultures are maintained, with media changes every 48 hours, for a period of 6 days. Non-osteoclastic cells are removed by treatment of cocultures with Collagenase I (1 mg/ml in Phosphate Buffered Saline [PBS]). Collagenase-sensitive cells are removed by washing with PBS. Preosteoclasts are lifted from the dish using EDTA (0.2 g/L in PBS) and transferred into culture dishes and maintained in α-MEM containing fetal calf serum (10%), 1,25 Dihydroxy Vitamin D3 (10 nM), and m-Colony Stimulating Factor (5 ng/ml). Osteoclast-like cells (collagenase-insensitive, EDTA-insensitive cells) that remain attached to the original coculture dishes are maintained in α-MEM containing fetal calf serum (10%), 1,25 Dihydroxy Vitamin D3 (10 nM), and m-Colony Stimulating Factor (5 ng/ml).\n(§2) Preosteoclasts are generated and purified as described in Example 1. […] Untreated cells are included in the analyses and act as a negative control for kinase activities. Cells are then harvested and lysed in a HEPES (N-(2-hydroxyethyl)piperazine-N′-(2-ethansulfonic acid) or Tris buffer containing the following: β-glycerophosphate (50 mM); Na3VO4 (1 mM); NaF (1 mM); Microcystin LR (1 μM); leupeptin (10 μg/ml); aprotinin (10 μg/ml); phenylmethyl sulfonylfluoride (1 mM). Protein concentrations are determined for each lysate and 5-20 μg are loaded into each lane of a SDS-PAGE (sodium dodecyl sulfate-polyacrylamide gel electrophoresis) gel containing Myelin Basic Protein, or another kinase substrate, which has been polymerized into the gel at a concentration between 50-400 μg/ml. Molecular weight standards are also loaded into one or more lanes of the gels. In-gel kinase assays are run according to a standard procedure based on Kameshita and Fujisawa, 1989 (Anal. Biochem. 183:139-143) and of Gotoh et al., 1990 (Eur. J. Biochem. 193: 661-669), both references being incorporated by reference herein in their entirety. The proteins are electrophoresed in the above gels. The gels are then successively soaked in 50 mM HEPES, pH 7.6; 5 mM 2-mercaptoethanol and each of the following (for each wash): (a) 20% isopropanol; (b) no additions; (c) urea (6 M); (d) Urea (3 M); (e) Urea (0.75 M); and Tween 20 (0.05% vol:vol). Kinase reactions are then run by first soaking the gels in 20 mM HEPES, pH 7.6; 20 mM MgCl2; 2 mM DTT and then in the same buffer containing […] (non-radioactive) with ca. 1000 cpm/pmol ^32P-γ-ATP. The gels are then washed six times with 5% trichloroacetic acid and 1% pyrophosphate. The gels are then stained with Coomassie brilliant blue dye (0.125%) in 50% methanol, 10% acetic acid; destained with 30% methanol, 10% acetic acid; soaked in 2% glycerol; and dried using a gel dryer. The gels are then exposed to autoradiography film for times ranging from several hours to weeks. The bands observed in the autoradipgraphs representing the gels reflect kinase activities. […] The band intensities on the autoradiography film are quantitated by densitometry and comparisons between bands from untreated controls and bands from echistatin-treated cells provide the basis for the analyses."}, "50 kDa Kinase [4]": {"test_system": "50 kDa Kinase", "assay": "in-gel kinase assay (myelin basic protein substrate) in purified preosteoclasts", "format": "cell-based, mouse", "method": "as §1, §2"}, "50 kDa Kinase [5]": {"test_system": "50 kDa Kinase", "assay": "in-gel kinase assay in HEK 293 transfectants expressing human αvβ3 integrin", "format": "cell-based", "settings": "αvβ3 integrin transfected HEK 293 cells"}, "stress reponsive kinases": {"test_system": "stress reponsive kinases", "assay": "activation of stress responsive kinases by compounds that modify osteoclast function", "format": "cell-based", "method": "as §2"}, "34 kDa Kinase": {"test_system": "34 kDa Kinase", "assay": "in-gel kinase assay in osteoclast-like cells", "format": "cell-based, mouse", "method": "as §1, §2\nA similar approach is also used to assay for the 34 kDa Kinase and the 130 kDa Kinase.\nOsteoclast-like cells are generated as described in Example 1. The compound or compounds to be evaluated are added at the desired concentration to the osteoclast-like cells for any of various times (1 minute to several hours). Cell lysates are made using standard techniques and in-gel kinase assays are performed as described in Example 2."}, "50 kDa Kinase [6]": {"test_system": "50 kDa Kinase", "assay": "in-gel kinase assay in Parental HEK 293 cells", "format": "cell-based, human", "settings": "10-60 min (FIG. 5D-5F), Ala^24 echistatin 30 nM"}, "Mst 1, Mst 2 [7]": {"test_system": "Mst 1, Mst 2", "assay": "in-gel kinase assay in Parental HEK 293 cells", "format": "cell-based, human", "settings": "10-60 min (FIG. 5D-5F), Ala^24 echistatin 30 nM"}, "[8]": {"settings": "osteoclast like cells, 30 μM and 100 μM, about 17 hours (FIG. 6)"}, "[9]": {"settings": "osteoclast-like cells, 100 μM and 300 μM (FIG. 9)"}, "[10]": {"settings": "dose response, standard (overnight) film exposure (FIG. 2A)"}}, "data": [{"compound": "O=P(O)(O)C(Cl)(Cl)P(=O)(O)O", "note": "[Clodronate, 1,1-dichloromethylene-1,1-diphosphonic acid]", "values": [{"measurement": "activation of the 34 kDa Mst kinase", "setting": "[1]", "result": "also induce"}]}, {"compound": "O=C(NC[C@H](NS(=O)(=O)c1ccccc1)C(=O)O)c1ccc(OCCNC2=NCCCN2)cc1", "note": "[RGD II, (2-[N-(3,4,5,6-tetrahydropyrimidin-2-yl)amino]ethyloxyphen-4-yl)carbonyl-2(S)-phenylsulfonamido-beta-alanine]", "values": [{"measurement": "change in Mst 1 (ca. 59 kDa), Mst 2 (ca. 60 kDa) activities", "setting": "Mst 1, Mst 2 [2]; 10 μM, 0-60 min (FIG. 5B)", "result": "increase"}, {"measurement": "activation of Mst 1, Mst 2", "setting": "[3]; 10 μM (FIG. 4B)", "result": "effective in activating"}, {"measurement": "activation of 50 kDa kinase", "setting": "50 kDa Kinase [4]; 10 μM (FIG. 4B)", "result": "effective in activating"}, {"measurement": "change in 50 kDa Kinase activity", "setting": "50 kDa Kinase [5]; 10 μM, 0-60 min (FIG. 5B)", "result": "increase"}, {"measurement": "activation of stress responsive kinases", "setting": "stress reponsive kinases", "result": "activate"}]}, {"compound": "Cl.Cl.Cl.O=C(O)C[C@H](Cc1cnc2ccccc2c1)NC(=O)CN1CC[C@H](NCc2ccc3c(n2)NCCC3)C1=O", "note": "[RGD I]", "values": [{"measurement": "activation of Mst 1, Mst 2", "setting": "[3]; 10 nM (FIG. 4B)", "result": "effective in activating"}, {"measurement": "activation of 50 kDa kinase", "setting": "50 kDa Kinase [4]; 10 nM (FIG. 4B)", "result": "effective in activating"}, {"measurement": "activation of stress responsive kinases", "setting": "stress reponsive kinases", "result": "activate"}]}, {"compound": "NCCCC(O)(P(=O)(O)O)P(=O)(O)O", "note": "[alendronate, 4-amino-1-hydroxybutylidene-1,1-bisphosphonic acid monosodium trihydrate]", "values": [{"measurement": "activation of the 34 kDa Mst kinase", "setting": "[1]", "result": "induce activation"}, {"measurement": "activation of stress responsive kinases", "setting": "stress reponsive kinases", "result": "activate"}, {"measurement": "activation of 34 kDa Kinase", "setting": "34 kDa Kinase; osteoclast like cells, 30 μM (FIG. 7, lane 2)", "result": "activation"}, {"measurement": "activation of 34 kDa Kinase", "setting": "34 kDa Kinase; [8]", "result": "activation"}, {"measurement": "activation of 34 kDa Kinase", "setting": "34 kDa Kinase; osteoclast-like cells, 10 μM and 30 μM, about 17 hours (FIG. 9)", "result": "activation"}, {"measurement": "activation of 34 kDa Kinase immunoprecipitated by anti-Mst and anti-Krs antibody cocktail", "setting": "34 kDa Kinase; osteoclast-like cells, 30 μM (FIG. 10, lane 3)", "result": "activated"}, {"measurement": "activation of 34 kDa Kinase when coincubated with caspase inhibitor Z—VAD—FMK", "setting": "34 kDa Kinase; osteoclast-like cells, in the presence of Z—VAD—FMK (FIG. 9, lane 8)", "result": "does not activate"}]}, {"compound": "CC(O)(P(=O)(O)O)P(=O)(O)O", "note": "[etidronate disodium, 1-hydroxyethane-1,1-diphosphonic acid]", "values": [{"measurement": "activation of the 34 kDa Mst kinase", "setting": "[1]", "result": "to a lesser extent"}, {"measurement": "activation of 34 kDa Kinase", "setting": "34 kDa Kinase; [8]", "result": "failed to activate"}, {"measurement": "activation of 34 kDa Kinase", "setting": "34 kDa Kinase; [9]", "result": "failed to activate"}]}, {"compound": "CC(C)=CCCC(C)=CCCC(C)=CCO", "note": "[farnesol]", "values": [{"measurement": "blocking of lovastatin effects (34 kDa Mst 1 activity)", "setting": "[1]", "result": "not"}, {"measurement": "reduction of alendronate- and risedronate-induced Mst 1 cleavage", "setting": "[1]", "result": "about 50%"}]}, {"compound": "CC(C)=CCC/C(C)=C/CC/C(C)=C/CC/C(C)=C/CO", "note": "[geranylgeraniol]", "values": [{"measurement": "blocking of alendronate- and risedronate-induced Mst 1 cleavage", "setting": "[1]", "result": "essentially completely blocked"}, {"measurement": "blocking of clodronate effects (34 kDa Mst kinase)", "setting": "[1]", "result": "not blocked"}, {"measurement": "blocking of lovastatin effects (34 kDa Mst 1 activity)", "setting": "[1]", "result": "blocked"}, {"measurement": "effect on activation of 34 kDa Kinase by 30 μM alendronate monosodium trihydrate", "setting": "34 kDa Kinase; osteoclast like cells, 10 μM geranyl geraniol (FIG. 7, lane 3)", "result": "negates this activation"}]}, {"compound": "CC[C@H](C)C(=O)O[C@H]1C[C@@H](C)C=C2C=C[C@H](C)[C@H](CC[C@@H]3C[C@@H](O)CC(=O)O3)[C@H]21", "note": "[lovastatin]", "values": [{"measurement": "34 kDa Mst 1 activity", "setting": "[1]; treatment for 17-24 hours", "result": "increases"}]}, {"compound": "C[C@@]1(O)CCOC(=O)C1", "note": "[mevalonic acid lactone]", "values": [{"measurement": "reduction of alendronate- and risedronate-induced Mst 1 cleavage", "setting": "[1]", "result": "about 50%"}]}, {"compound": "C[C@@](O)(CCO)CC(=O)O", "note": "[mevalonic acid]", "values": [{"measurement": "blocking of lovastatin effects (34 kDa Mst 1 activity)", "setting": "[1]", "result": "blocked"}]}, {"compound": "NCCC(O)(P(=O)(O)O)P(=O)(O)O", "note": "[pamidronate, 3-amino-1-hydroxypropylidene-1,1-bisphosphonic acid]", "values": [{"measurement": "activation of the 34 kDa Mst kinase", "setting": "[1]", "result": "induce activation"}]}, {"compound": "O=P(O)(O)C(O)(Cc1cccnc1)P(=O)(O)O", "note": "[risedronate, 1-hydroxy-2-(3-pyridinyl)-ethylidene-1,1-bisphosphonic acid]", "values": [{"measurement": "activation of the 34 kDa Mst kinase", "setting": "[1]", "result": "induce activation"}]}, {"compound": "O=P(O)(O)C(Sc1ccc(Cl)cc1)P(=O)(O)O", "note": "[tiludronate disodium, (4-chlorophenyl)thiomethane-1,1-disphosphonic acid]", "values": [{"measurement": "activation of 34 kDa Kinase", "setting": "34 kDa Kinase; [8]", "result": "failed to activate"}, {"measurement": "activation of 34 kDa Kinase", "setting": "34 kDa Kinase; [9]", "result": "failed to activate"}]}, {"compound": "calcitonin", "values": [{"measurement": "activation of stress responsive kinases", "setting": "stress reponsive kinases", "result": "activate"}]}, {"compound": "echistatin", "values": [{"measurement": "effect on activity of 50 kDa Kinase", "setting": "50 kDa Kinase [6]", "result": "no significant effect"}, {"measurement": "effect on activities of Mst 1, Mst 2", "setting": "Mst 1, Mst 2 [7]", "result": "no significant effect"}, {"measurement": "change in Mst 1 (ca. 59 kDa), Mst 2 (ca. 60 kDa) activities", "setting": "Mst 1, Mst 2 [2]; 30 nM, 0-60 min (FIG. 5A, 5C)", "result": "increase"}, {"measurement": "activation of approximately 60 kDa kinase doublet", "setting": "[3]; 30 nM, time course (FIG. 1B)", "result": "strongly activated"}, {"measurement": "concentration of maximal activities of approximately 60 kDa kinase doublet", "setting": "[3]; [10]", "result": "about 30 nM"}, {"measurement": "concentrations showing activation of approximately 60 kDa kinase doublet", "setting": "[3]; [10]", "result": "≥ 10", "unit": "nM"}, {"measurement": "treatment time of maximal kinase activity", "setting": "[3]; timecourse (FIG. 4A)", "result": 20, "unit": "min"}, {"measurement": "activation of kinase of approximately 50 kDa", "setting": "50 kDa Kinase [4]; 30 nM, time course (FIG. 1B)", "result": "also activated"}, {"measurement": "activation of the approximately 50 kDa kinase", "setting": "50 kDa Kinase [4]; 30 and 100 nM doses, extended (about 3-4 days) exposure (FIG. 2B)", "result": "activation"}, {"measurement": "change in 50 kDa Kinase activity", "setting": "50 kDa Kinase [5]; 30 nM, 0-60 min (FIG. 5A, 5C)", "result": "increase"}, {"measurement": "activation of stress responsive kinases", "setting": "stress reponsive kinases", "result": "activate"}]}]}
